Consider seven compounds from US6569878B1, “Substituted 4-amino-thiazol-2-yl compounds as cyclin-dependent kinase inhibitors” (Agouron Pharmaceuticals Inc., priority 1997, dated 2003).

In one test the target is T1, CDK2/cyclin A (Homo sapiens, UniProt P24941).
T1 construct: made in house; host or cells: CDK2: insect cells (baculovirus); cyclin A: E. coli, then limited proteolysis
The test is described as follows: Inhibition of CDK2/cyclin A retinoblastoma kinase activity. In kind it is biochemical. Particulars: read-out: Ki CDK 2/A. In outline: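 Baculovirus-expressed CDK2 with excess proteolyzed cyclin A (or purified complex), 150 nM or 5 nM, phosphorylating an Rb fragment with 25 μM [32/33P]ATP, pH 7.4, 30° C, 20 min. Filter-captured radioactivity by phosphorimager; apparent Ki from fits to competitive or tight-binding competitive inhibition using measured ATP Km.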

For test [1], the target named is T2, complex of cyclin D1 and a fusion protein of human CDK4 and glutathione-S-transferase (GST-CDK4) (Homo sapiens, UniProt P11802).
T2 construct: made in house; host or cells: insect cells, co-infected with baculovirus
The test is described as follows: Inhibition of CDK4/cyclin D retinoblastoma kinase activity (D-type cyclin is D1). In kind it is biochemical. The following applies: superscript b: D-type cyclin is D1, read-out: Ki CDK 4/D. The method, then:
Cyclin-dependent kinase activity was measured by quantifying the enzyme-catalyzed, time-dependent incorporation of radioactive phosphate from [^32P]ATP or [^33P]ATP into a protein substrate. Unless noted otherwise, assays were performed in 96-well plates in a total volume of 50 μL, in the presence of 10 mM HEPES (N-[2-hydroxyethyl]piperazine-N′-[2-ethanesulfonic acid]) (pH 7.4), 10 mM MgCl2, 25 μM adenosine triphosphate (ATP), 1 mg/mL ovalbumin, 5 μg/mL leupeptin, 1 mM dithiothreitol, 10 mM β-glycerophosphate, 0.1 mM sodium vanadate, 1 mM sodium fluoride, 2.5 mM ethylene glycol-bis(β-aminoethyl ether)-N,N,N′N′-tetraacetic acid (EGTA), 2% (v/v) dimethylsulfoxide, and 0.03-0.4 μCi [^32/33P]ATP per reaction. Reactions were initiated with enzyme, incubated at 30° C., and terminated after 20 minutes by the addition of ethylenediaminetetraacetic acid (EDTA) to 250 mM. The phosphorylated substrate was then captured on a nitrocellulose or phosphocellulose membrane using a 96-well filtration manifold, and unincorporated radioactivity was removed by repeated washing with 0.85% phosphoric acid. Radioactivity was quantified by exposing the dried membranes to a phosphorimager.
Apparent Ki values were measured by assaying enzyme activity in the presence of different inhibitor compound concentrations and subtracting the background radioactivity measured in the absence of enzyme. The kinetic parameters (kcat, Km for ATP) were measured for each enzyme under the usual assay conditions by determining the dependence of initial rates on ATP concentration. Inhibition data were fit to an equation for competitive inhibition using Kaleidagraph (Synergy Software), or were fit to an equation for competitive tight-binding inhibition using the software KineTic (BioKin, Ltd.).
A complex of human CDK4 and cyclin D3, or a complex of cyclin D1 and a fusion protein of human CDK4 and gluathione-S-transferase (GST-CDK4), or a complex of human CDK4 and genetically truncated (1-264) cyclin D3, was purified using traditional biochemical chromatographic techniques from insect cells that had been co-infected with the corresponding baculovirus expression vectors (see e.g., Meijer and Kim, “Chemical Inhibitors of Cyclin-Dependent Kinases,” Methods in Enzymol,. vol. 283 (1997), pp. 113-128.). The enzyme complex (5 or 50 nM) was assayed with 0.3-0.5 μg of purified recombinant retinoblastoma protein fragment (Rb) as a substrate. The engineered Rb fragment (residues 386-928 of the native retinoblastoma protein; 62.3 kDa) contains the majority of the phosphorylation sites found in the native 106-kDa protein, as well as a tag of six histidine residues for ease of purification. Phosphorylated Rb substrate was captured by microfiltration on a nitrocellulose membrane and quantified using a phosphorimager as described above. For measurement of tight-binding inhibitors, the enzyme complex concentration was lowered to 5 nM, and the assay duration was extended to 60 minutes, during which the time-dependence of product formation was linear.

The test system of the next test is SW-480. The test is described as follows: Inhibition of cell growth, MTT assay, SW-480. The test is classed as cell-based. Particulars: Homo sapiens, SW480; SW-480, MTT assay. The method, then:
Inhibition of cell growth was measured using the tetrazolium salt assay, which is based on the ability of viable cells to reduce 3-(4,5-dimethylthiazol-2-yl)-2,5-[2H]-diphenyltetrazolium bromide (MTT) to formazan (Mossman, Journal of Immunological Methods, vol. 65 (1983), pp. 55-58). The water-insoluble purple formazan product was then detected spectrophotometrically. Various cell lines (HCT-116, Saos-2, U2-OS, SW480, COLO-205, RXF-393, M14, MDA-MB-468, and MCF7) were grown in 96-well plates. Cells were plated in the appropriate medium at a volume of 135 μl/well in either McCoy's 5A Medium (for Saos-2, U2-OS, SW480, and HCT-116 cells), RPMI (for COLO-205, RXF-393, M14 cells), or Minimum Essential Medium Eagle (for MDA-MB-468 and MCF7 cells). Plates were incubated for four hours before addition of inhibitor compounds. Different concentrations of inhibitor compounds were added in 0.5% (v/v) dimethylsulfoxide (15 μL/well), and cells were incubated at 37° C. (5% CO2) for four to six days (depending on cell type). At the end of the incubation, MTT was added to a final concentration of 0.2 mg/mL, and cells were incubated for 4 hours more at 37° C. After centrifugation of the plates and removal of medium, the absorbance of the formazan (solubilized in dimethylsulfoxide) was measured at 540 nm. […] All results were compared to control cells treated only with 0.5% (v/v) dimethylsulfoxide.

The next test has as its system HCT116. The test is described as follows: Inhibition of cell growth, MTT assay, HCT116. Particulars: Homo sapiens, HCT-116. In kind it is cell-based, human. The procedure, abridged: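 Cells rested 4 h after plating, then exposed to graded compound concentrations in 0.5% (v/v) DMSO for four to six days (cell-type dependent) at 37° C, 5% CO2. Viability was read by MTT (0.2 mg/mL final, 4 h at 37° C), with DMSO-solubilized formazan measured at 540 nm.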

The target of test [2] is T3, complex of human CDK4 and cyclin D3 (Homo sapiens, UniProt P11802).
T3 construct: made in house; host or cells: insect cells, co-infected with baculovirus
The experiment in a line: Inhibition of CDK4/cyclin D retinoblastoma kinase activity (D-type cyclin is D3). The test is classed as biochemical. The following applies: superscript a: D-type cyclin is D3, read-out: Ki CDK 4/D. In outline:
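Radiometric assay: [32P]- or [33P]ATP phosphate incorporation into Rb substrate at 30°C for 20 min, stopped with EDTA, filter-captured and phosphorimaged.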

The target of test [3] is T4, human CDK1 (cdc2) and cyclin B (Homo sapiens, UniProt P06493).
T4 construct: purchased New England Biolabs (Beverly Mass.)
The experiment in a line: Inhibition of CDK1(cdc2)/cyclin B histone H1 kinase activity. The test is classed as biochemical. The following applies: read-out: Ki CDK 1/B. The procedure, abridged: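 CDK1/cyclin B (commercial, or CDK1/GST-cyclin B1 from co-infected insect cells) phosphorylated histone H1 with 25 μM [32/33P]ATP at pH 7.4, 30° C for 20 min, 2% DMSO. Product captured on phosphocellulose and read by phosphorimager; apparent Ki from competitive or tight-binding fits, with Km for ATP determined.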

Structures are written as SMILES. Read-outs that look alike come from different tables or passages of the source. Bounds are passed on as bounds.

T3 sequence (P11802 whole entry): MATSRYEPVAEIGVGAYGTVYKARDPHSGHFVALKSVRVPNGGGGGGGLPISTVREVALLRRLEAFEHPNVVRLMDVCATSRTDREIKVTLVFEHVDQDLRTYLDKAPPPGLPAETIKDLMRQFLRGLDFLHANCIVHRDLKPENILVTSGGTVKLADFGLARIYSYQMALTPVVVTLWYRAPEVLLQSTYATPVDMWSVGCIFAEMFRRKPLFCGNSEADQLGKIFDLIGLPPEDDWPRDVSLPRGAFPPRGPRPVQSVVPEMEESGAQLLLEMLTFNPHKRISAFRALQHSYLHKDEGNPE
T3 sequence (P30281 whole entry partner): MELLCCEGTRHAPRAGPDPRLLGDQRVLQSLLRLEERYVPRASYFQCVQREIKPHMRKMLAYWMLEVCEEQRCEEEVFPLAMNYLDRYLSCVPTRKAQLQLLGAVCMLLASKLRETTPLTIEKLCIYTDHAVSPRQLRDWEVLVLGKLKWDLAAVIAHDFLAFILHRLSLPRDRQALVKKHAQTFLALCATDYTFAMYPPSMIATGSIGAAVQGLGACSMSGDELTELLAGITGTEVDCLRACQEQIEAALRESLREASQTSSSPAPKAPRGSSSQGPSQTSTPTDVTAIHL
T2 sequence (P11802 whole entry, the tested form may be a part): as the sequence (P11802 whole entry) above
T2 sequence (P24385 whole entry partner, the tested form may be a part): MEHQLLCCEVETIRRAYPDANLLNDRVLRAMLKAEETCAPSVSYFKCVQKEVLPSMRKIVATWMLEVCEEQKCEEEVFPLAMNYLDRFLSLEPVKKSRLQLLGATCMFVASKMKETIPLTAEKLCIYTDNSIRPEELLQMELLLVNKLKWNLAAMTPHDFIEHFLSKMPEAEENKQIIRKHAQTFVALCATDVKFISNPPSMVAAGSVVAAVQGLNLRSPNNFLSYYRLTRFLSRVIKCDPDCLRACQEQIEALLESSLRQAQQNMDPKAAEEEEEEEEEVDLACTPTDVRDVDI
T4 sequence (P06493 whole entry): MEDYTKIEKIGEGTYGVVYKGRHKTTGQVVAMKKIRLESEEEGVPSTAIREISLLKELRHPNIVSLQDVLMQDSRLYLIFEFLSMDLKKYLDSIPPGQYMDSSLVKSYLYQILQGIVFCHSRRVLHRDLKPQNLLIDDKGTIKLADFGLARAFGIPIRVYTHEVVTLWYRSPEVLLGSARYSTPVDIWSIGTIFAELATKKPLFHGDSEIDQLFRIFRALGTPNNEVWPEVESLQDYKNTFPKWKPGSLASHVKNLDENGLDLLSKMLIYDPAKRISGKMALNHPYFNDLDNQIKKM
T4 sequence (P14635 whole entry partner): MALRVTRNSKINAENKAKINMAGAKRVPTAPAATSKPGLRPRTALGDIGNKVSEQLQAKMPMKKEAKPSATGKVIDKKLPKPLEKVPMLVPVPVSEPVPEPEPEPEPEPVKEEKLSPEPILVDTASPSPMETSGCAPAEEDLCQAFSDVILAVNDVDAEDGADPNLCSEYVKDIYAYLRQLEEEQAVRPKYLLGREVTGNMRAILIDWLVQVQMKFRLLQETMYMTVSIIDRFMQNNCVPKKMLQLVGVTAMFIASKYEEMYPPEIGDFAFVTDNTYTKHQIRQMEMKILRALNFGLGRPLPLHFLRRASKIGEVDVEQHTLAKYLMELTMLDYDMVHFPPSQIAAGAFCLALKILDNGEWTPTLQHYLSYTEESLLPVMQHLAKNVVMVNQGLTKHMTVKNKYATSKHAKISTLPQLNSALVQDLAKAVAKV

One may read the IC50 as the concentration needed to halve the response being measured. Read a low IC50 as inhibition by little substance. In general, IC90 refers to the point of the concentration-response curve where the effect stands at 90%. `Nc1nc(Nc2ccccc2)sc1C(=O)c1cccc([N+](=O)[O-])c1` [A(1), (4-Amino-2-phenylamino-thiazol-5-yl)-(3-nitrophenyl)-methanone]: the Ki on CDK2/cyclin A was determined as 1.2 µM; in test [1], 0.77 µM; in test [2] (apparent Ki), 0.66 µM. Further, the IC50 in the test on SW-480 came to 4000 nM; in the test with HCT116, 2500 nM. Besides, the IC90 stood at 9000 nM in the test on SW-480 and 10000 nM in the test with HCT116.

Take `Nc1cccc(C(=O)c2sc(Nc3ccccc3)nc2N)c1` [D(1), (3-Amino-phenyl)-(4-amino-2-phenylamino-thiazol-5-yl)-methanone]: the Ki is 0.9 µM on CDK2/cyclin A and 0.49 µM in test [1].

For `Nc1nc(Nc2ccccc2)sc1C(=O)c1ccccc1` [I(1)*], the Ki at CDK2/cyclin A was found to be 0.46 µM; in test [1], 0.102 µM; in test [2] (apparent Ki) it was 0.64 µM; in test [3], 500 nM.

On to `CC(=O)c1sc(Nc2ccccc2)nc1N` [I(2)*], for which the Ki on CDK2/cyclin A is 8.7 µM; in test [1] (μM), approximately 30 µM; in test [2] (apparent Ki) it was 8 µM.

As for `CC(=O)c1sc(NCc2ccccc2)nc1N` [I(3)*], the Ki is more than 100 µM in test [1] (μM) and more than 5 µM in test [2] (μM).

On to `Nc1nc(Nc2ccccc2)sc1C(=O)C1CC1` [I(4)*], for which the Ki on CDK2/cyclin A (μM) was 4.3 µM; in test [1] (μM), 3.1 µM; in test [3], 3900 nM.

Consider `CCNc1nc(N)c(C(=O)c2ccccc2)s1` [I(5)*], for which the Ki on CDK2/cyclin A worked out at 4.6 µM; in test [1], 0.87 µM; in test [2] (apparent Ki), 1.1 µM; in test [3], 4500 nM.
